Assay results taken from ChEMBL document CHEMBL2046268 (Eur J Med Chem, 2012).
The source made the active and inactive calls. The calls are words filed in the database; no cut-off is given here. *1 amine or outer side, *2 acyl side, *3 side chain or, on linkers, in order; H or OH if unused. Where a SMILES comes first, the peptide text is derived from it. Bridges are numbered along the chain shown (N, C = ends). Roman numbers before positions name the chains, in order. [ ]: non-standard residue; d: D form. Actinocin(1to9) = Cc1c2oc3c(C)ccc(C(=O)[*:2])c3nc-2c(C(=O)[*:1])c(N)c1=O; NMeV = CN[C@H](C(=O)O)C(C)C; Sar = CNCC(=O)O

Key:
HeLa [1] = experiment: Cytotoxicity against human HeLa cells assessed as cell viability after 48 hrs by MTT assay; assay type: functional, cell-based
A549 [2] = experiment: Cytotoxicity against human A549 cells assessed as cell viability after 48 hrs by MTT assay; assay type: functional, cell-based; settings: A549, 48 h
MCF7 [3] = experiment: Cytotoxicity against human MCF7 cells assessed as cell viability after 48 hrs by MTT assay; assay type: functional, cell-based; settings: MCF7, 48 h
Vero [4] = experiment: Selectivity index, ratio of IC50 for african green monkey Vero cells to IC50 for human MCF7 cells after 48 hrs
HeLa [5] = experiment: Induction of apoptosis in human HeLa cells assessed as DNA fragmentation by agarose gel electrophoresis; assay type: functional, cell-based
HeLa [6] = experiment: Induction of apoptosis in human HeLa cells assessed as phosphatidylserine externalization after 0.5 to 4 hrs using annexin/PI staining by fluorescence microscopy; assay type: functional, cell-based
HeLa [7] = experiment: Induction of apoptosis in human HeLa cells assessed as necrotic cells after 0.5 to 4 hrs using annexin/PI staining by fluorescence microscopy; assay type: functional, cell-based
HeLa [8] = experiment: Induction of apoptosis in human HeLa cells assessed as phosphatidylserine externalization at 1 uM using annexin/PI staining by fluorescence microscopy; assay type: functional, cell-based; settings: TDE = time-dependent effect
HeLa [9] = experiment: Induction of apoptosis in human HeLa cells assessed as necrotic cells at 1 uM using annexin/PI staining by fluorescence microscopy; assay type: functional, cell-based; settings: TDE = time-dependent effect
HeLa [10] = experiment: Cytotoxicity against human HeLa cells assessed as cell viability after 72 hrs by MTT assay; assay type: functional, cell-based
A549 [11] = experiment: Cytotoxicity against human A549 cells assessed as cell viability after 72 hrs by MTT assay; assay type: functional, cell-based; settings: A549, 72 h
MCF7 [12] = experiment: Cytotoxicity against human MCF7 cells assessed as cell viability after 72 hrs by MTT assay; assay type: functional, cell-based; settings: MCF7, 72 h
Vero [13] = experiment: Cytotoxicity against african green monkey Vero cells assessed as cell viability after 48 hrs by MTT assay; assay type: cell-based; settings: Chlorocebus sabaeus
Vero [14] = experiment: Cytotoxicity against african green monkey Vero cells assessed as cell viability after 72 hrs by MTT assay; assay type: cell-based; settings: Chlorocebus sabaeus
HeLa [15] = experiment: Induction of apoptosis in human HeLa cells assessed as DNA fragmentation at 16 uM after 48 hrs by agarose gel electrophoresis; assay type: functional, cell-based
HeLa [16] = experiment: Induction of apoptosis in human HeLa cells assessed as DNA fragmentation at 16 to 32 uM after 24 hrs by agarose gel electrophoresis; assay type: functional, cell-based
HeLa [17] = experiment: Induction of apoptosis in human HeLa cells assessed as DNA fragmentation at 4 to 32 uM after 12 hrs by agarose gel electrophoresis; assay type: functional, cell-based
HeLa [18] = experiment: Induction of apoptosis in human HeLa cells assessed as chromatin condensation at 8 uM after 12 hrs using Hoechst 33342 staining by fluorescence microscopic analysis; assay type: functional, cell-based
HeLa [19] = experiment: Induction of apoptosis in human HeLa cells assessed as formation of apoptotic bodies at 8 uM after 12 hrs using Hoechst 33342 staining by fluorescence microscopic analysis; assay type: functional, cell-based
HeLa [20] = experiment: Increase in apoptosis in human HeLa cells at 8 uM after 12 hrs using Hoechst 33342 staining by fluorescence microscopic analysis relative to control; assay type: functional
Caspase-3 (Homo sapiens) [21] = target: T1, Caspase-3 (Homo sapiens) (UniProt P42574); experiment: Induction of caspase 3 activation in human HeLa cells using Ac-DEVD-pNA after 4 hrs by Bradford assay; assay type: cell-based
T1 sequence (whole entry): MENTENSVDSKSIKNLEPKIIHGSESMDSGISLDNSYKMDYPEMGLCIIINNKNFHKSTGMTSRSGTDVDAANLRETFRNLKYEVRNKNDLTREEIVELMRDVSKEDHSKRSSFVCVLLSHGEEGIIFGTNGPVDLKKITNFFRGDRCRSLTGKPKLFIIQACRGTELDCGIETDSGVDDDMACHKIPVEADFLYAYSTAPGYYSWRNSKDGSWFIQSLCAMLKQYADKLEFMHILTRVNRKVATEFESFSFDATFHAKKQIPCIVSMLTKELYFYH

Caspase-3 (Homo sapiens) [22] = target: T1, Caspase-3 (Homo sapiens); experiment: Induction of caspase 3 activation in human HeLa cells using Ac-DEVD-pNA at 4 uM after 4 hrs by Bradford assay; assay type: cell-based
Caspase-3 (Homo sapiens) [23] = target: T1, Caspase-3 (Homo sapiens); experiment: Induction of caspase 3 activation in human HeLa cells using Ac-DEVD-pNA at 8 uM after 4 hrs by Bradford assay; assay type: cell-based
HeLa [24] = experiment: Induction of apoptosis in human HeLa cells assessed as phosphatidylserine externalization at 2 to 16 uM using annexin/PI staining by fluorescence microscopy; assay type: functional, cell-based; settings: TDE = time-dependent effect
HeLa [25] = experiment: Induction of apoptosis in human HeLa cells assessed as necrotic cells at 2 to 16 uM using annexin/PI staining by fluorescence microscopy; assay type: functional, cell-based; settings: TDE = time-dependent effect
HeLa [26] = experiment: Induction of apoptosis in human HeLa cells assessed as early apoptotic cells at 2 to 4 uM up to 4 hrs using annexin/PI staining by fluorescence microscopy; assay type: functional, cell-based
HeLa [27] = experiment: Induction of apoptosis in human HeLa cells assessed as late apoptotic cells at 2 to 4 uM up to 4 hrs using annexin/PI staining by fluorescence microscopy; assay type: functional, cell-based

Cc1c2oc3c(C)ccc(C(=O)N[C@@H]4C(=O)N[C@H](C(C)C)C(=O)N5CCC[C@H]5C(=O)N(C)CC(=O)N(C)[C@@H](C(C)C)C(=O)O[C@@H]4C)c3nc-2c(C(=O)N[C@@H]2C(=O)N[C@H](C(C)C)C(=O)N3CCC[C@H]3C(=O)N(C)CC(=O)N(C)[C@@H](C(C)C)C(=O)O[C@@H]2C)c(N)c1=O [DACTINOMYCIN] (I: T[dV]P[Sar][NMeV] / II: T[dV]P[Sar][NMeV]; ester I:1-I:C, II:1-II:C; linker I:N-II:N via Actinocin(1to9))
IC50 (HeLa [1]): 0.0011 µM | IC50 (A549 [2]): 0.0072 µM | IC50 (MCF7 [3]): 0.024 µM | Ratio IC50 (Vero [4]): 3 | Activity (HeLa [5]): Active | Activity (HeLa [6]): Dose-dependent effect | Activity (HeLa [7]): Dose-dependent effect | Activity (HeLa [8]): tde | Activity (HeLa [9]): tde

CC1=C(C)C(=O)O[C@@H]([C@@H](C)[C@H]2CC=C3[C@@H]4C[C@H]5O[C@]56[C@@H](O)C=CC(=O)[C@]6(C)[C@H]4CC[C@@]32C)C1
IC50 (HeLa [1]): 3.5 µM | IC50 (A549 [2]): 2.6 µM | IC50 (HeLa [10]): 2.9 µM | IC50 (A549 [11]): 2.1 µM | IC50 (MCF7 [3]): 1.3 µM | IC50 (MCF7 [12]): 0.3 µM | IC50 (Vero [13]): 6.2 µM | IC50 (Vero [14]): 1.2 µM | Ratio IC50 (Vero [4]): 1.7 | Activity (HeLa [15]): inactive | Activity (HeLa [16]): inactive | Activity (HeLa [17]): inactive | Activity (HeLa [18]): Active | Activity (HeLa [19]): Active | Activity (HeLa [20]): 27% | Activity (Caspase-3 (Homo sapiens) [21]): Dose-dependent effect | Activity (Caspase-3 (Homo sapiens) [22]): inactive | Activity (Caspase-3 (Homo sapiens) [23]): inactive | Activity (HeLa [24]): tde | Activity (HeLa [25]): tde | Activity (HeLa [26]): Active | Activity (HeLa [27]): Active | Activity (HeLa [6]): Dose-dependent effect | Activity (HeLa [7]): Dose-dependent effect
